Where two headings read alike, the source gives them in different places.
Experiments:
hα3β4 AChR [1] = target: T1, hα3β4 AChR (Homo sapiens, UniProt P30926+P32297); assay type: binding; settings: for ΔG^20: 293 K; for Ea (energy of activation of the dissociation process): Arrhenius plot; for ΔH°: van't Hoff plot
hα3β4 AChR [2] = target: T1, hα3β4 AChR; assay: Binding kinetics by non-linear chromatography on the CMAC-hα3β4 AChR column
hα3β4 AChR [3] = target: T1, hα3β4 AChR; assay: cell-based; assay type: cell-based
hα3β4 AChR [4] = target: T1, hα3β4 AChR; assay type: binding; settings: for nH: radioligand [3H]TCP
hα3β4 AChR [5] = target: T1, hα3β4 AChR; assay type: binding; settings: for nH: radioligand [3H]ibogaine
rat α3β4 AChRs = settings: 86Rb+ efflux, rat α3β4 AChRs ref Hernandez et al., 2000; cited from earlier work
hα3β4 AChR [6] = target: T1, hα3β4 AChR; assay: Equilibrium binding of [3H]ibogaine to hα3β4 AChR membranes
[7] = Epibatidine treated column (desensitized state)
[8] = κ-BTx treated column (resting state)
[9] = AChR in the resting state (κ-BTx), 20 °C
[10] = Desensitized state (1 µM (−)-nicotine)

T1 sequence (P32297 32-505): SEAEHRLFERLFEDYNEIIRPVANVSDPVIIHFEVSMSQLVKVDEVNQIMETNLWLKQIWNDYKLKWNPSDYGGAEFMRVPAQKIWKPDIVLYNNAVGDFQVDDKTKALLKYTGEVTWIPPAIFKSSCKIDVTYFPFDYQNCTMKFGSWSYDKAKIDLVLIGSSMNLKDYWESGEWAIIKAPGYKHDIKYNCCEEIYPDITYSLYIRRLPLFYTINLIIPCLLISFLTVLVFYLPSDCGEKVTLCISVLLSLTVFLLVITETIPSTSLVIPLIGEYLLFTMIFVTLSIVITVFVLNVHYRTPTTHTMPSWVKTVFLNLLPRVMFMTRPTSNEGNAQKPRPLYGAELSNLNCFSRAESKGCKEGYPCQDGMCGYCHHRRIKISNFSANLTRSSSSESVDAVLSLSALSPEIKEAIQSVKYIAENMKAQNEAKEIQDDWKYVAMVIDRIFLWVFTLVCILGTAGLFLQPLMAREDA
T1 sequence (P30926 22-498): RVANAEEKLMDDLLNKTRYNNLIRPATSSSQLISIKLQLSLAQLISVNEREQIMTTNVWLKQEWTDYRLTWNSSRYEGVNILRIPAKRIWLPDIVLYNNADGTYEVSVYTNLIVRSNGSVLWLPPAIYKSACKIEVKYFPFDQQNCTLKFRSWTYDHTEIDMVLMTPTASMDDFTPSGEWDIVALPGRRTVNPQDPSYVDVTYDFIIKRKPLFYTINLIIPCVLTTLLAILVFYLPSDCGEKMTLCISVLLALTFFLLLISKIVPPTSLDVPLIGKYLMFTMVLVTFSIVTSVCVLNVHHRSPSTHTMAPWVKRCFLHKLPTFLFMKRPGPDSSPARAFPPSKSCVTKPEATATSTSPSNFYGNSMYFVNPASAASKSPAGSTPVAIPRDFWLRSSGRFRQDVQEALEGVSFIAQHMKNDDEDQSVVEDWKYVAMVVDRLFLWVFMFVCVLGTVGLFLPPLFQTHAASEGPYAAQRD

Compound: 7-ethyl-6,2,7,8,9,10,12,13-octahydro-2-methoxy-6,9-methano 5H-pyrido(1′,2′:1,2-azepine (4,5-)indole) [Ibogaine]
- ΔH^+ (enthalpy change of the transition state) (hα3β4 AChR [1]; [7]): 12.7 ± 1.8 kJmol^−1
- −TΔS° (hα3β4 AChR [1]; [7]): −29.4 ± 0.3 kJmol-^1
- ΔG^20 (hα3β4 AChR [1]; [7]): −37.0 ± 0.1 kJmol^−1
- Ea (energy of activation of the dissociation process) (hα3β4 AChR [1]; [7]): 15.1 ± 1.8 kJmol^−1
- ΔH° (hα3β4 AChR [1]; [7]): -1.82 ± 0.072 kcal/mol
- ΔH^+ (enthalpy change of the transition state) (hα3β4 AChR [1]; [8]): 11.2 ± 0.7 kJmol^−1
- −TΔS° (hα3β4 AChR [1]; [8]): −26.2 ± 0.7 kJmol-^1
- ΔG^20 (hα3β4 AChR [1]; [8]): −36.7 ± 0.1 kJmol^−1
- Ea (energy of activation of the dissociation process) (hα3β4 AChR [1]; [8]): 13.7 ± 0.7 kJmol^−1
- ΔH° (hα3β4 AChR [1]; [8]): -2.51 ± 0.17 kcal/mol
- koff (hα3β4 AChR [2]): 0.078 ± 0.002 s⁻¹
- kon (hα3β4 AChR [2]): 300000 ± 10000 M⁻¹ s⁻¹
- ΔG (hα3β4 AChR [2]): -8.82 ± 0.024 kcal/mol
- Ka (association constant) (hα3β4 AChR [2]; [9]): 3.47 ± 0.12 µM⁻¹
- koff (hα3β4 AChR [2]; [9]): 0.088 ± 0.001 s⁻¹
- kon (hα3β4 AChR [2]; AChR in the resting state (κ-BTx), kon = koff·Ka): 310000 ± 20000 M⁻¹ s⁻¹
- association rate constants kon (order of magnitude) (hα3β4 AChR [2]; both conformational states): ~ 10^5 M^−1 s^−1
- nH (Hill coefficient) (hα3β4 AChR [3]): 1.24 ± 0.07
- fold higher potency than PCP in inhibiting (±)-epibatidine-induced Ca2+ influx (hα3β4 AChR [3]; ibogaine IC50 versus PCP IC50): ~ 9 fold
- nH (hα3β4 AChR [4]; [10]): 0.95 ±0.13
- nH (hα3β4 AChR [4]; Resting state): 0.79 ± 0.13
- fold higher affinity for desensitized than resting AChR (hα3β4 AChR [4]; [3H]TCP competition): ~ 2.6 fold
- nH (hα3β4 AChR [5]; [10]): 1.01 ±0.11
- nH (hα3β4 AChR [5]; Resting state): 0.82 ± 0.08
- fold higher affinity for desensitized/nicotine-bound than resting/no ligand AChR (hα3β4 AChR [5]; [3H]ibogaine competition, p < 0.05): ~ 2.8 fold

Compound: Clc1ccc(C2CC3CCC2N3)cn1 (racemic) [(±)-epibatidine, (±)-Epibatidine]
- nH (Hill coefficient) (hα3β4 AChR [3]; activation of the hα3β4 AChR, Ca2+ influx): 1.21 ± 0.06

Compound: c1ccc(C2(N3CCCCC3)CCCCC2)cc1 [PCP, phencyclidine]
- IC50 (hα3β4 AChR [3]): 8.5 ± 1.4 µM
- fold higher inhibitory potency in the hα3β4 AChR than in the muscle AChR (hα3β4 AChR [3]; compared with muscle AChR value of ref Fryer and Lukas, 1999): ~ 2 fold
- nH (Hill coefficient) (hα3β4 AChR [3]; inhibition of (±)-epibatidine-induced Ca2+ influx, HEK293-hα3β4 cells): 0.92 ± 0.02
- Ki (hα3β4 AChR [4]): 10 ± 2 µM
- nH (hα3β4 AChR [4]; Resting state): 0.87 ± 0.10
- Ki (hα3β4 AChR [5]): 17 ± 2 µM
- nH (hα3β4 AChR [5]; Resting state): 0.88 ± 0.07
- times lower affinity compared to ibogaine (hα3β4 AChR [5]; resting hα3β4 AChR, Table 2 values): 10–16 times
- IC50 (rat α3β4 AChRs): 7 ± 1.3 µM

Compound: [^3H]ibogaine
- specific activity (number of binding sites, Bmax) (hα3β4 AChR [6]; HEK293-hα3β4 membranes, x-intersect of Scatchard plot): 3.9 ± 0.4 pmol/mg protein
- Kd (hα3β4 AChR [6]; resting (no ligand) state, Rosenthal-Scatchard plot): 0.46 ± 0.06 µM

Reference: article PMC4609575 (The international journal of biochemistry & cell biology, 2010)
